{"source": "patent US20240109850A1", "about": "“Covalent PPARG inverse-agonists” (Bayer Aktiengesellschaft, priority 2022, published 2024)", "target": "T1, PPARG-LBD (Homo sapiens, UniProt P37231)", "T1 construct": "purchased ThermoFisher", "T1 sequence (P37231 238-503 limits assumed)": "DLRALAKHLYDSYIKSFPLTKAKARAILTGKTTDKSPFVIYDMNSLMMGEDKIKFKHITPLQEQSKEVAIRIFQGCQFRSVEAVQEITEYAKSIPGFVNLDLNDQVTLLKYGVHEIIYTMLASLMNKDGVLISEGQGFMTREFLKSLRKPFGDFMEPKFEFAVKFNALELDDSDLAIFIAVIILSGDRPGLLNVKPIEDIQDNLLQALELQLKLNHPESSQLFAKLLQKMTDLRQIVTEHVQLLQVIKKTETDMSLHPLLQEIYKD", "test": "Biochemical LanthaScreen TR-FRET PPAR gamma corepressor assay (PPARG-LBD / NCOR2 peptide)", "conditions": "2 h, read-out: Efficacy", "method": "Biochemical Assay for Determining Inverse Agonist Activity of Compounds\nA biochemical interaction assay measuring the ligand-dependent changes in interactions between the PPARG-LBD and a fluorescent peptide from the corepressor, NCOR2 (Smrt ID2, ThermoFisher), was performed to evaluate inverse agonist activity.\nThis assay was performed according to the manufacturers protocol (LanthaScreen TR-FRET PPAR gamma Corepressor Assay, ThermoFisher). […] After incubation the FRET signal was measured using an PHERAstar Plus Plate Reader (BMG). Every sample was tested in duplicate and mean values were used to calculate the EC50 values and efficacies of the compounds. A model of nonlinear regression curve fit was used for calculation."}
{"smiles": "C=CC(=O)Nc1ccc2oc(-c3ccc(CC)cc3)nc2c1", "note": "[Example 24, N-[2-(4-Ethylphenyl)-1,3-benzoxazol-5-yl]prop-2-enamide]", "values": [{"measurement": "Emax", "result": 0, "unit": "%"}]}
